Data published in paper PMC9421653 (Journal of Medicinal Chemistry, 2022).

The compounds below were run against T1, human GPR84 (Homo sapiens, UniProt P04899+Q9NQS5) (assay: biochemical). Conditions: [35S]GTPγS assay; negative log of the IC50 in molar; mean ± SEM.
T1 construct: expressed in transfected cells; host or cells: Flp-In T-REx 293 cells, doxycycline-induced; membrane preparations
Format: biochemical

T1 sequence (Q9NQS5+P04899 fused): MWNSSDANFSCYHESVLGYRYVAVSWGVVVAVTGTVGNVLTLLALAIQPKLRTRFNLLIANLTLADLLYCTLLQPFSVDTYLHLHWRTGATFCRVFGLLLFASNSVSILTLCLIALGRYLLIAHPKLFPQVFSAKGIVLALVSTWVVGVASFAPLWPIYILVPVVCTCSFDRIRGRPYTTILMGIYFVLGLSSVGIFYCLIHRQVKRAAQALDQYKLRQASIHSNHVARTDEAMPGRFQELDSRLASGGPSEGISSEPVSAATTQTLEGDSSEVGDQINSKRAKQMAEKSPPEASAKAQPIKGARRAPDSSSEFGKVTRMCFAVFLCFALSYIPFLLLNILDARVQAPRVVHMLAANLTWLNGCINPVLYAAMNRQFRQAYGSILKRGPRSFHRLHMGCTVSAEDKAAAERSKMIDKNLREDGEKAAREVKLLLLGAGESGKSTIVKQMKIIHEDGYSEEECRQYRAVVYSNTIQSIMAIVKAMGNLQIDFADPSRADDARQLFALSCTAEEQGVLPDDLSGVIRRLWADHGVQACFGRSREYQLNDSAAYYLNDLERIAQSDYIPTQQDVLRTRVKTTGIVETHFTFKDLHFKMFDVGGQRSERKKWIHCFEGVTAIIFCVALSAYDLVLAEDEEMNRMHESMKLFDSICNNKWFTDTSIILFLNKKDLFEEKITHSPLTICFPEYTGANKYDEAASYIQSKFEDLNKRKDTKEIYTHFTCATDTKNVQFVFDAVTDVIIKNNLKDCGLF

Compared with `CN(C)Cc1ccc(-c2nnc(Cc3c[nH]c4ccccc34)nc2-c2ccccc2)cc1` [Compound 44, 1-(4-(3-((1H-Indol-3-yl)methyl)-5-phenyl-1,2,4-triazin-6-yl)phenyl)-N,N-dimethylmethanamine], `CC(=O)NCc1ccc(-c2nc(Cc3c[nH]c4ccccc34)nnc2-c2ccccc2)cc1` [Compound 45, N-(4-(3-((1H-Indol-3-yl)methyl)-6-phenyl-1,2,4-triazin-5-yl)benzyl)acetamide] is higher in “GTPγS (pIC50)” value: 6.68 ± 0.05 for the first, 6.93 ± 0.06 for the second.

Going from `CC(=O)NCc1ccc(-c2nnc(Cc3c[nH]c4ccccc34)nc2-c2ccccc2)cc1` [Compound 46, N-(4-(3-((1H-Indol-3-yl)methyl)-5-phenyl-1,2,4-triazin-6-yl)benzyl)acetamide] to `CS(=O)(=O)NCc1ccc(-c2nc(Cc3c[nH]c4ccccc34)nnc2-c2ccccc2)cc1` [Compound 47, N-(4-(3-((1H-indol-3-yl)methyl)-6-phenyl-1,2,4-triazin-5-yl)benzyl)methanesulfonamide], the “GTPγS (pIC50)” value falls from 7.98 ± 0.06 to 6.72 ± 0.06.

Compared with `CS(=O)(=O)NCc1ccc(-c2nnc(Cc3c[nH]c4ccccc34)nc2-c2ccccc2)cc1` [Compound 48, N-(4-(3-((1H-Indol-3-yl)methyl)-5-phenyl-1,2,4-triazin-6-yl)benzyl)methanesulfonamide], `COC(=O)c1ccc(-c2nc(Cc3c[nH]c4ccccc34)nnc2-c2ccccc2)cc1` [Compound 49, Methyl 4-(3-((1H-Indol-3-yl)methyl)-6-phenyl-1,2,4-triazin-5-yl)benzoate] is lower in “GTPγS (pIC50)” value: 7.61 ± 0.06 for the first, 6.74 ± 0.05 for the second.

`O=C(O)c1ccc(-c2nnc(Cc3c[nH]c4ccccc34)nc2-c2ccccc2)cc1` [Compound 52, 4-(3-((1H-Indol-3-yl)methyl)-5-phenyl-1,2,4-triazin-6-yl)benzoic Acid] and `CNC(=O)c1ccc(-c2nnc(Cc3c[nH]c4ccccc34)nc2-c2ccccc2)cc1` [Compound 73, 4-(3-((1H-Indol-3-yl)methyl)-5-phenyl-1,2,4-triazin-6-yl)-N-methylbenzamide] are within 0.2 log units of each other in “GTPγS (pIC50)” value: 7.06 ± 0.22 for the first, 7.18 ± 0.09 for the second.

Compared with `O=C(O)c1cccc(-c2nc(Cc3c[nH]c4ccccc34)nnc2-c2ccccc2)c1` [Compound 55, 3-(3-((1H-Indol-3-yl)methyl)-6-phenyl-1,2,4-triazin-5-yl)benzoic Acid], `O=C(c1ccc(-c2nnc(Cc3c[nH]c4ccccc34)nc2-c2ccccc2)cc1)N1CCOCC1` [Compound 74, (4-(3-((1H-Indol-3-yl)methyl)-5-phenyl-1,2,4-triazin-6-yl)phenyl)(morpholino)methanone] is higher in “GTPγS (pIC50)” value: 4.99 ± 0.32 for the first, 7.19 ± 0.07 for the second.

First: c1ccc(-c2nnc(Cc3c[nH]c4cnccc34)nc2-c2cnccn2)cc1 [Compound 59, 3-((6-Phenyl-5-(pyrazin-2-yl)-1,2,4-triazin-3-yl)methyl)-1H-pyrrolo[2,3-c]pyridine]
Second: c1ccc(-c2nc(Cc3c[nH]c4cnccc34)nnc2-c2cnccn2)cc1 [Compound 60, 3-((5-Phenyl-6-(pyrazin-2-yl)-1,2,4-triazin-3-yl)methyl)-1H-pyrrolo[2,3-c]pyridine]
The “GTPγS (pIC50)” value of the first is lower: 5.38 ± 0.12 for the first, 5.91± 0.06 for the second.

Going from `c1ccc(-c2nnc(Cc3c[nH]c4cnccc34)nc2-c2ccnnc2)cc1` [Compound 61, 3-((6-Phenyl-5-(pyridazin-4-yl)-1,2,4-triazin-3-yl)methyl)-1H-pyrrolo[2,3-c]pyridine] to `c1ccc(-c2nc(Cc3c[nH]c4cnccc34)nnc2-c2ccnnc2)cc1` [Compound 62, 3-((5-Phenyl-6-(pyridazin-4-yl)-1,2,4-triazin-3-yl)methyl)-1H-pyrrolo[2,3-c]pyridine], the “GTPγS (pIC50)” value rises from 5.84 ± 0.10 to 6.21 ± 0.04.

First: c1ccc(-c2nnc(Cc3c[nH]c4cnccc34)nc2-c2ccc(CN3CCOCC3)cc2)cc1 [Compound 63, 4-(4-(3-((1H-Pyrrolo[2,3-c]pyridin-3-yl)methyl)-6-phenyl-1,2,4-triazin-5-yl)benzyl)morpholine]
Second: c1ccc(-c2nc(Cc3c[nH]c4cnccc34)nnc2-c2ccc(CN3CCOCC3)cc2)cc1 [Compound 64, 4-(4-(3-((1H-Pyrrolo[2,3-c]pyridin-3-yl)methyl)-5-phenyl-1,2,4-triazin-6-yl)benzyl)morpholine]
The “GTPγS (pIC50)” value of the first is lower: 7.27 ± 0.06 for the first, 8.33 ± 0.15 for the second.

`COC(=O)c1ccc(-c2nc(Cc3c[nH]c4cnccc34)nnc2-c2ccccc2)cc1` [Compound 65, Methyl 4-(3-((1H-Pyrrolo[2,3-c]pyridin-3-yl)methyl)-6-phenyl-1,2,4-triazin-5-yl)benzoate] and `COC(=O)c1ccc(-c2nnc(Cc3c[nH]c4cnccc34)nc2-c2ccccc2)cc1` [Compound 66, Methyl 4-(3-((1H-Pyrrolo[2,3-c]pyridin-3-yl)methyl)-5-phenyl-1,2,4-triazin-6-yl)benzoate] are within error of each other in “GTPγS (pIC50)” value: 7.37 ± 0.33 for the first, 7.02 ± 0.06 for the second.

First: CNC(=O)c1ccc(-c2nc(Cc3c[nH]c4cnccc34)nnc2-c2ccccc2)cc1 [Compound 67, 4-(3-((1H-Pyrrolo[2,3-c]pyridin-3-yl)methyl)-6-phenyl-1,2,4-triazin-5-yl)-N-methylbenzamide]
Second: CNC(=O)c1ccc(-c2nc(Cc3c[nH]c4ccncc34)nnc2-c2ccccc2)cc1 [Compound 71, 4-(3-((1H-Pyrrolo[3,2-c]pyridin-3-yl)methyl)-6-phenyl-1,2,4-triazin-5-yl)-N-methylbenzamide]
The “GTPγS (pIC50)” value of the first is higher: 6.48 ± 0.04 for the first, 5.64 ± 0.05 for the second.

First: O=C(NCCO)c1ccc(-c2nc(Cc3c[nH]c4cnccc34)nnc2-c2ccccc2)cc1 [Compound 69, 4-(3-((1H-Pyrrolo[2,3-c]pyridin-3-yl)methyl)-6-phenyl-1,2,4-triazin-5-yl)-N-(2-hydroxyethyl)benzamide]
Second: O=C(NCCO)c1ccc(-c2nnc(Cc3c[nH]c4cnccc34)nc2-c2ccccc2)cc1 [Compound 70, 4-(3-((1H-Pyrrolo[2,3-c]pyridin-3-yl)methyl)-5-phenyl-1,2,4-triazin-6-yl)-N-(2-hydroxyethyl)benzamide]
The “GTPγS (pIC50)” value of the first is lower: 6.84 ±0.05 for the first, 7.04 ± 0.07 for the second.

Going from `CNC(=O)c1ccc(-c2nnc(Cc3c[nH]c4ccncc34)nc2-c2ccccc2)cc1` [Compound 72, 4-(3-((1H-Pyrrolo[3,2-c]pyridin-3-yl)methyl)-5-phenyl-1,2,4-triazin-6-yl)-N-methylbenzamide] to `CN(C)CCNC(=O)c1ccc(-c2nnc(Cc3c[nH]c4ccccc34)nc2-c2ccccc2)cc1` [Compound 75, 4-(3-((1H-Indol-3-yl)methyl)-5-phenyl-1,2,4-triazin-6-yl)-N-(2-(dimethylamino)ethyl)benzamide], the “GTPγS (pIC50)” value falls from 6.35 ± 0.06 to 5.54 ± 0.10.

`CN1CCN(C(=O)c2ccc(-c3nnc(Cc4c[nH]c5ccccc45)nc3-c3ccccc3)cc2)CC1` [Compound 77, (4-(3-((1H-Indol-3-yl)methyl)-5-phenyl-1,2,4-triazin-6-yl)phenyl)(4-methylpiperazin-1-yl)methanone] was tested, and the “GTPγS (pIC50)” value was 5.95 ± 0.10.
